Ten compounds from US9999616B2 (ZENITH EPIGENETICS LTD., priority 2013, dated 2018) can be followed below.

The target in assay [1] is Brd4 bromodomain 1 (BRD4(1)) (Homo sapiens, UniProt O60885). In words: Inhibition of tetra-acetylated histone H4 binding to Brd4 bromodomain 1, measured by FRET (HTRF). Conditions: 2 h at room temperature. Further details: made in house; host or cells: E. coli BL21(DE3). The gist of the method:
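Inhibition was read as a drop in 665 nm relative to 620 nm HTRF signal after 2 h at room temperature, with IC50 from dose-response curves in duplicate wells. Reactions held 200 nM E. coli-expressed His-tagged bromodomain and 25-50 nM biotinylated tetra-acetylated histone H4 peptide. Buffer was 30 mM HEPES pH 7.4 with KF, CHAPS, BSA and 0.2% DMSO.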
Background: TR-FRET usually uses a lanthanide donor and a delayed reading to cut background.

The subject of assay [2] is c-myc in Human AML MV4-11 cells. In words: Inhibition of cMYC expression (mRNA, real-time PCR) in MV4-11 cells. Format: cell-based. Conditions: 3 h treatment, cMYC mRNA by real-time PCR. Put shortly: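 MV4-11 cells in IMDM with 10% FBS were treated with increasing compound concentrations (DMSO 0.1%) for 3 h at 37 °C, in triplicate. Isolated mRNA was quantified by one-step TaqMan RT-qPCR, cMYC Ct normalized to cyclophilin, and fold expression given relative to DMSO control.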

The subject of assay [3] is hIL-6 mRNA. In words: Inhibition of hIL-6 mRNA transcription in LPS-stimulated U937 macrophages. Format: cell-based, Human. To be noted: Homo sapiens, U-937, PMA-differentiated U937 cells, 1 h pretreatment, LPS 3 h, read-out: IL-6 activity. Put shortly:
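PMA-differentiated U937 macrophages (60 ng/mL PMA, 3 days) pretreated 1 h with compound in 0.1% DMSO, then stimulated with 1 ug/mL E. coli LPS for 3 h at 37° C. IL-6 mRNA quantified by one-step TaqMan qRT-PCR, normalized to cyclophilin; fold expression relative to control, triplicate wells.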

Assay [4] relates to Human AML MV-4-11 cells. In words: Inhibition of cell proliferation in MV4-11 cells (CellTiter Aqueous One). Format: cell-based. Conditions: for IC50: MV4-11, 72 h. Put shortly:
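MV4-11 cells, 5×10^4 per well in IMDM with 10% FBS, were exposed to increasing compound concentrations or 0.1% DMSO for 72 h at 37 °C in triplicate. Viability was read by MTS (CellTiter Aqueous One) absorbance at 490 nm after 3-4 h. IC50 was derived from background-corrected signal relative to DMSO.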

A value given as a limit tells only on which side of the number the result lay.

As for `Cc1nc2c(Nc3cccnc3C)cc(-c3c(C)noc3C)cc2[nH]1` [Example Compound 143, 6-(3,5-dimethylisoxazol-4-yl)-2-methyl-N-(2-methylpyridin-3-yl)-1H-benzo[d]imidazol-4-amine], the IC50 in assay [1] was at most 300 nM; in assay [2] it was 300 to 3000 nM; in assay [3], 300 to 3000 nM; in assay [4] it was 300 to 3000 nM.

For the compound `Cc1nc2c(-c3ccccc3Cl)cc(-c3c(C)noc3C)cc2[nH]1` [Example Compound 144, 4-(4-(2-chloro-phenyl)-2-methyl-1H-benzo[d]imidazol-6-yl)-3,5-dimethyl isoxazole], the IC50 in assay [1], in assay [2], in assay [3] and in assay [4] was at most 300 nM each time.

Turning to `Cc1nc2c(-c3cc4ccccc4s3)cc(-c3c(C)noc3C)cc2[nH]1` [Example Compound 145, 4-(4-(benzo[b]thiophen-2-yl)-2-methyl-1H-benzo[d]imidazol-6-yl)-3,5-dimethyl isoxazole], the IC50 in assay [1] is 300 to 3000 nM; in assay [2] it was 300 to 3000 nM; in assay [3], 300 to 3000 nM; in assay [4], at most 300 nM.

Regarding `Cc1nc2c(N3CCC3=O)cc(-c3c(C)noc3C)cc2[nH]1` [Example Compound 147, 1-(6-(3,5-dimethyl-isoxazol-4-yl)-2-methyl-1H-benzo[d]imidazol-4-yl)azetidin-2-one], the IC50 in assay [1], in assay [2] and in assay [3] was 300 to 3000 nM each time. Also, in assay [4] (72 h), the “Cell Proliferation activity” value was “Not active”.

Consider `Cc1nc2c(Oc3ccccc3)cc(-c3c(C)noc3C)cc2[nH]1` [Example Compound 148, 3,5-dimethyl-4-(2-methyl-4-phenoxy-1H-benzo[d]imidazol-6-yl)isoxazole], for which the IC50 in assay [1] was at most 300 nM; in assay [2], at most 300 nM; in assay [3] it was at most 300 nM; in assay [4], 300 to 3000 nM.

Turning to `Cc1noc(C)c1-c1cc(-c2c(C)noc2C)c2nc(NCCO)[nH]c2c1` [Example Compound 150, 2-((4,6-bis(3,5-dimethyl-isoxazol-4-yl)-1H-benzo[d]imidazol-2-yl)amino) ethanol], the IC50 in assay [1] is at most 300 nM; in assay [2], 300 to 3000 nM; in assay [3], 300 to 3000 nM; in assay [4], 300 to 3000 nM.

In the case of `Cc1noc(C)c1-c1cc(N(CCc2ccccc2)CCc2ccccc2)c2nc[nH]c2c1` [Example Compound 151, 6-(3,5-dimethyl-isoxazol-4-yl)-N,N-diphenethyl-1H-benzo[d] imidazol-4-amine], the IC50 in assay [1], in assay [2], in assay [3] and in assay [4] was 300 to 3000 nM in each case.

On to `COc1cccc(-c2cc(-c3c(C)noc3C)cc3[nH]c(C)nc23)c1F` [Example Compound 152, 4-(4-(2-fluoro-3-methoxy-phenyl)-2-methyl-1H-benzo[d]imidazol-6-yl)-3,5-dimethyl isoxazole], for which the IC50 in assay [1] is at most 300 nM; in assay [2], 300 to 3000 nM; in assay [3], at most 300 nM; in assay [4], 300 to 3000 nM.

Take `Cc1nc2c(-c3ccc4nccnc4c3)cc(-c3c(C)noc3C)cc2[nH]1` [Example Compound 153, 3,5-dimethyl-4-(2-methyl-4-(quinoxalin-6-yl)-1H-benzo[d]imidazol-6-yl)isoxazole]: the IC50 is at most 300 nM in assay [1], 300 to 3000 nM in assay [2], 300 to 3000 nM in assay [3] and 300 to 3000 nM in assay [4].

Take `Cc1nc2c(Oc3cccnc3C)cc(-c3c(C)noc3C)cc2[nH]1` [Example Compound 155, 3,5-dimethyl-4-(2-methyl-4-((2-methylpyridin-3-yl)oxy)-1H-benzo[d]imidazol-6-yl)isoxazole]: the IC50 was at most 300 nM in assay [1], 300 to 3000 nM in assay [2], 300 to 3000 nM in assay [3] and 300 to 3000 nM in assay [4].
